Test results as given in patent US10004701B2, “Methods and compositions for treating infection” (UNIVERSITY OF ROCHESTER, priority 2012, dated 2018).
Structures can show the parent of a compound that is named as a salt. Where two headings read alike, the source gives them in different places.

Columns and labels:
Assay in all cases: AK assay 384-well format, Prestwick library screening
[1] = test system: E. coli; type: cell-based, Escherichia coli; settings: 50 μM final drug concentration; for fold induction at 50 µM: Escherichia coli, 3 h
[2] = test system: P. aeruginosa; type: cell-based, Pseudomonas aeruginosa; settings: 50 μM final drug concentration; for fold induction at 50 µM: Pseudomonas aeruginosa, 3 h
[3] = test system: A. baumannii strain 98-37-09; type: cell-based, Acinetobacter baumannii; settings: 50 μM final drug concentration; for fold induction at 50 µM: Acinetobacter baumannii, 983709, 3 h
[4] = test system: E. cloacae; type: cell-based, Enterobacter cloacae; settings: 50 μM final drug concentration; for fold induction at 50 µM: Enterobacter cloacae, 3 h
[5] = test system: S. aureus strain USA300-0114; type: cell-based, Staphylococcus aureus; settings: 50 μM final drug concentration; for fold induction at 50 µM: Staphylococcus aureus, USA300, 3 h
[6] = test system: E. faecium; type: cell-based, Enterococcus faecium; settings: 50 μM final drug concentration; for fold induction at 50 µM: Enterococcus faecium, 3 h
[7] = test system: K. pneumoniae; type: cell-based, Klebsiella pneumoniae; settings: 50 μM final drug concentration; for fold induction at 50 µM: Klebsiella pneumoniae, 3 h
[8] = planktonic, cutoff for positive 3-fold increase
[9] = planktonic E. coli, positive cutoff 3-fold increase, read-out: AK-based Prestwick library screening result, E. coli (fold increase in extracellular AK activity)
[10] = planktonic P. aeruginosa, positive cutoff 3-fold increase, read-out: AK-based Prestwick library screening result, P. aeruginosa (fold increase in extracellular AK activity)
[11] = planktonic A. baumannii, positive cutoff 3-fold increase, read-out: AK-based Prestwick library screening result, A. baumannii (fold increase in extracellular AK activity)
[12] = planktonic E. cloacae, positive cutoff 3-fold increase, read-out: AK-based Prestwick library screening result, E. cloacae (fold increase in extracellular AK activity)
[13] = planktonic S. aureus, positive cutoff 3-fold increase, read-out: AK-based Prestwick library screening result, S. aureus (fold increase in extracellular AK activity)
[14] = planktonic E. faecium, positive cutoff 3-fold increase, read-out: AK-based Prestwick library screening result, E. faecium (fold increase in extracellular AK activity)
[15] = planktonic K. pneumoniae, positive cutoff 3-fold increase, read-out: AK-based Prestwick library screening result, K. pneumoniae (fold increase in extracellular AK activity)
[16] = planktonic E. coli, cutoff for positive-scoring molecules 3-fold increase, read-out: AK-based Prestwick Library Screening Results, E. coli (increase in extracellular AK activity)
[17] = planktonic P. aeruginosa, cutoff for positive-scoring molecules 3-fold increase, read-out: AK-based Prestwick Library Screening Results, P. aeruginosa (increase in extracellular AK activity)
[18] = planktonic A. baumannii, cutoff for positive-scoring molecules 3-fold increase, read-out: AK-based Prestwick Library Screening Results, A. baumannii (increase in extracellular AK activity)
[19] = planktonic E. cloacae, cutoff for positive-scoring molecules 3-fold increase, read-out: AK-based Prestwick Library Screening Results, E. cloacae (increase in extracellular AK activity)
[20] = planktonic S. aureus, cutoff for positive-scoring molecules 3-fold increase, read-out: AK-based Prestwick Library Screening Results, S. aureus (increase in extracellular AK activity)
[21] = planktonic E. faecium, cutoff for positive-scoring molecules 3-fold increase, read-out: AK-based Prestwick Library Screening Results, E. faecium (increase in extracellular AK activity)
[22] = planktonic K. pneumoniae, cutoff for positive-scoring molecules 3-fold increase, read-out: AK-based Prestwick Library Screening Results, K. pneumoniae (increase in extracellular AK activity)

C[n+]1cc2c3c(ccc2c2ccc4cc5c(cc4c21)OCO5)OCO3 [Sanguinarine]
fold induction at 50 µM ([1]; planktonic E. coli, […], read-out: AK-based Prestwick library screening result, E. coli (fold increase in extracellular AK activity)): 0.6 | fold induction at 50 µM ([2]; planktonic P. aeruginosa, […], read-out: AK-based Prestwick library screening result, P. aeruginosa (fold increase in extracellular AK activity)): 0.3 | fold induction at 50 µM ([3]; planktonic A. baumannii, […], read-out: AK-based Prestwick library screening result, A. baumannii (fold increase in extracellular AK activity)): 0.7 | fold induction at 50 µM ([4]; planktonic E. cloacae, […], read-out: AK-based Prestwick library screening result, E. cloacae (fold increase in extracellular AK activity)): 0.9 | fold induction at 50 µM ([5]; planktonic S. aureus, […], read-out: AK-based Prestwick library screening result, S. aureus (fold increase in extracellular AK activity)): 0.1 | fold induction at 50 µM ([6]; planktonic E. faecium, […], read-out: AK-based Prestwick library screening result, E. faecium (fold increase in extracellular AK activity)): 0.3 | fold induction at 50 µM ([7]; planktonic K. pneumoniae, […], read-out: AK-based Prestwick library screening result, K. pneumoniae (fold increase in extracellular AK activity)): 0.2

CC(=O)NC1[C@@H](O)OC(CO)[C@@H](O)[C@H]1O[C@H](C)C(=O)O (stereo in doubt) [Muramic acid, N-acetyl]
AK-based Prestwick Library Screening Results, E. coli (fold increase in extracellular AK activity) [1, 8]: 1.1 | AK-based Prestwick Library Screening Results, P. aeruginosa (fold increase in extracellular AK activity) [2, 8]: 1.1 | AK-based Prestwick Library Screening Results, A. baumannii (fold increase in extracellular AK activity) [3, 8]: 1.5 | AK-based Prestwick Library Screening Results, E. cloacae (fold increase in extracellular AK activity) [4, 8]: 1.4 | AK-based Prestwick Library Screening Results, S. aureus (fold increase in extracellular AK activity) [5, 8]: 1.0 | AK-based Prestwick Library Screening Results, E. faecium (fold increase in extracellular AK activity) [6, 8]: 1.0 | AK-based Prestwick Library Screening Results, K. pneumoniae (fold increase in extracellular AK activity) [7, 8]: 1.0

COc1nc(C)nc(Cl)c1N=C1NCCN1 [Moxonidine]
fold induction at 50 µM [1, 9]: 1.1 | fold induction at 50 µM [2, 10]: 1.1 | fold induction at 50 µM [3, 11]: 1.1 | fold induction at 50 µM [4, 12]: 1.8 | fold induction at 50 µM [5, 13]: 1 | fold induction at 50 µM [6, 14]: 0.9 | fold induction at 50 µM [7, 15]: 1.1

CNc1ncnc2c1ncn2[C@@H]1O[C@H](CO)[C@@H](O)[C@H]1O [Compound N6-methyladenosine, N6-methyladenosine]
fold induction at 50 µM [1, 16]: 0.6 | fold induction at 50 µM [2, 17]: 0.6 | fold induction at 50 µM [3, 18]: 0.6 | fold induction at 50 µM [4, 19]: 0.7 | fold induction at 50 µM [5, 20]: 0.5 | fold induction at 50 µM [6, 21]: 0.9 | fold induction at 50 µM [7, 22]: 0.5

CC(C)(C)NC(=O)[C@H]1CC[C@H]2[C@@H]3CC[C@H]4NC(=O)C=C[C@]4(C)[C@H]3CC[C@]12C [Finasteride]
fold induction at 50 µM ([1]; cutoff for positive-scoring molecules 3-fold increase, read-out: AK-based Prestwick Library Screening Results, E. coli (fold increase in extracellular AK activity)): 1.1 | fold induction at 50 µM ([2]; cutoff for positive-scoring molecules 3-fold increase, read-out: AK-based Prestwick Library Screening Results, P. aeruginosa (fold increase in extracellular AK activity)): 1.1 | fold induction at 50 µM ([3]; cutoff for positive-scoring molecules 3-fold increase, read-out: AK-based Prestwick Library Screening Results, A. baumannii (fold increase in extracellular AK activity)): 1.2 | fold induction at 50 µM ([4]; cutoff for positive-scoring molecules 3-fold increase, read-out: AK-based Prestwick Library Screening Results, E. cloacae (fold increase in extracellular AK activity)): 1.8 | fold induction at 50 µM ([5]; cutoff for positive-scoring molecules 3-fold increase, read-out: AK-based Prestwick Library Screening Results, S. aureus (fold increase in extracellular AK activity)): 1 | fold induction at 50 µM ([6]; cutoff for positive-scoring molecules 3-fold increase, read-out: AK-based Prestwick Library Screening Results, E. faecium (fold increase in extracellular AK activity)): 1.1 | fold induction at 50 µM ([7]; cutoff for positive-scoring molecules 3-fold increase, read-out: AK-based Prestwick Library Screening Results, K. pneumoniae (fold increase in extracellular AK activity)): 0.9

COC(=O)[C@H]1[C@H]2C[C@H]3c4[nH]c5ccccc5c4CCN3C[C@H]2CC[C@@H]1O [Rauwolscine hydrochloride]
fold induction at 50 µM [1, 16]: 0.7 | fold induction at 50 µM [2, 17]: 0.6 | fold induction at 50 µM [3, 18]: 0.8 | fold induction at 50 µM [4, 19]: 0.8 | fold induction at 50 µM [5, 20]: 0.7 | fold induction at 50 µM [6, 21]: 1 | fold induction at 50 µM [7, 22]: 0.6

c1cnc(N2CCN(Cc3ccc4c(c3)OCO4)CC2)nc1 [Piribedil hydrochloride]
fold induction at 50 µM [1, 9]: 0.6 | fold induction at 50 µM [2, 10]: 0.6 | fold induction at 50 µM [3, 11]: 0.7 | fold induction at 50 µM [4, 12]: 1 | fold induction at 50 µM [5, 13]: 0.6 | fold induction at 50 µM [6, 14]: 0.9 | fold induction at 50 µM [7, 15]: 0.5

Pyrantel tartrate
AK-based Prestwick Library Screening Results: E. coli (increase in extracellular AK activity) ([1]; planktonic E. coli, 384-well, cutoff for positive-scoring molecules 3-fold increase): 1.3 | AK-based Prestwick Library Screening Results: P. aeruginosa (increase in extracellular AK activity) ([2]; planktonic P. aeruginosa, 384-well, cutoff for positive-scoring molecules 3-fold increase): 1.2 | AK-based Prestwick Library Screening Results: A. baumannii (increase in extracellular AK activity) ([3]; planktonic A. baumannii, 384-well, cutoff for positive-scoring molecules 3-fold increase): 1.1 | AK-based Prestwick Library Screening Results: E. cloacae (increase in extracellular AK activity) ([4]; planktonic E. cloacae, 384-well, cutoff for positive-scoring molecules 3-fold increase): 1.4 | AK-based Prestwick Library Screening Results: S. aureus (increase in extracellular AK activity) ([5]; planktonic S. aureus, 384-well, cutoff for positive-scoring molecules 3-fold increase): 1.2 | AK-based Prestwick Library Screening Results: E. faecium (increase in extracellular AK activity) ([6]; planktonic E. faecium, 384-well, cutoff for positive-scoring molecules 3-fold increase): 1.1 | AK-based Prestwick Library Screening Results: K. pneumoniae (increase in extracellular AK activity) ([7]; planktonic K. pneumoniae, 384-well, cutoff for positive-scoring molecules 3-fold increase): 0.9

C=N[C@@H](C(=O)N[C@@H]1C(=O)N2[C@@H]1SC(C)(C)[C@@H]2C(=O)O)c1ccccc1 [Metampicillin sodium salt]
fold induction at 50 µM ([1]; planktonic E. coli, 384-well, cutoff for positive-scoring molecules 3-fold increase, read-out: AK-based Prestwick Library Screening Results: E. coli (increase in extracellular AK activity)): 16.8 | fold induction at 50 µM ([2]; planktonic P. aeruginosa, 384-well, cutoff for positive-scoring molecules 3-fold increase, read-out: AK-based Prestwick Library Screening Results: P. aeruginosa (increase in extracellular AK activity)): 1.3 | fold induction at 50 µM ([3]; planktonic A. baumannii, 384-well, cutoff for positive-scoring molecules 3-fold increase, read-out: AK-based Prestwick Library Screening Results: A. baumannii (increase in extracellular AK activity)): 1.1 | fold induction at 50 µM ([4]; planktonic E. cloacae, 384-well, cutoff for positive-scoring molecules 3-fold increase, read-out: AK-based Prestwick Library Screening Results: E. cloacae (increase in extracellular AK activity)): 4.3 | fold induction at 50 µM ([5]; planktonic S. aureus, 384-well, cutoff for positive-scoring molecules 3-fold increase, read-out: AK-based Prestwick Library Screening Results: S. aureus (increase in extracellular AK activity)): 1.3 | fold induction at 50 µM ([6]; planktonic E. faecium, 384-well, cutoff for positive-scoring molecules 3-fold increase, read-out: AK-based Prestwick Library Screening Results: E. faecium (increase in extracellular AK activity)): 1.6 | fold induction at 50 µM ([7]; planktonic K. pneumoniae, 384-well, cutoff for positive-scoring molecules 3-fold increase, read-out: AK-based Prestwick Library Screening Results: K. pneumoniae (increase in extracellular AK activity)): 1

C=C(C)[C@@H]1CC[C@]2(C(=O)O)CC[C@]3(C)[C@H](CC[C@@H]4[C@@]5(C)CC[C@H](O)C(C)(C)[C@@H]5CC[C@]43C)[C@@H]12 [Betulinic acid]
fold induction at 50 µM [1, 16]: 0.6 | fold induction at 50 µM [2, 17]: 0.6 | fold induction at 50 µM [3, 18]: 0.6 | fold induction at 50 µM [4, 19]: 0.7 | fold induction at 50 µM [5, 20]: 0.1 | fold induction at 50 µM [6, 21]: 0.9 | fold induction at 50 µM [7, 22]: 0.5
